Measured values: patent US20250313546A1, “NUCLEIC ACID BINDERS” (UNIVERSITY OF STRATHCLYDE, priority 2022, published 2025)
≈ marks a conversion by molar mass, not a printed value.

How the values were obtained:
[1] = tested on: Escherichia coli (ATCC 25922); test: Antibacterial MIC, broth microdilution (CLSI); assay type: cell-based; details: Escherichia coli, ATCC25922; read-out: MIC80 E. coli
[2] = tested on: Human rhinovirus (HRV-14); test: Viral ToxGlo assay, Hela Ohio cells; assay type: cell-based; details: M-HeLa, 72 h
[3] = tested on: SARS-CoV-2 (hCoV-19/Australia/VIC01/2020); test: SARS-CoV-2 microplaque inhibition assay in Vero-E6 cells; assay type: cell-based; details: for IC50: Severe acute respiratory syndrome coronavirus 2, Vero C1008, plaque inhibition, Vero-E6 cells, read-out: IC50 SARS-CoV-2
[4] = tested on: A. fumigatus A1160 (MFIG001); details: Aspergillus fumigatus, read-out: MIC99 A. fumigatus A1160
[5] = tested on: Candida glabrata (ACPF3309); details: Nakaseomyces glabratus, read-out: MIC99 Candida glabrata
T. equiperdum = test: Resazurin-based (Alamar blue) drug sensitivity assay; details: Trypanosoma equiperdum, read-out: IC50 T. equiperdum
Influenza (H1N1) = test: Accelerated Viral Neuraminidase Inhibition Assay (AVINA), A549 cells; assay type: cell-based; details: Influenza A virus, 72 h
C. albicans (ATCC 90028) = details: Candida albicans, ATCC90028, read-out: MIC99 C. albicans
[6] = tested on: Genomic double stranded DNA (salmon); test: Fluorescence intercalator displacement (FID) assay, SYBR-safe probe; details: 20 μM compound, 30° C., lower % = stronger binding
Procedure, shortened: (§1)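 Probe displacement was measured at 30 °C in 1 mM phosphate pH 7.4 containing SybrSafe (12500-fold dilution), 3.76 ng/mL nucleic acid (salmon dsDNA or polyAU dsRNA) and 20 μM compound. Fluorescence loss is normalised between probe-only and probe-plus-nucleic-acid controls.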

[7] = tested on: PolyAU double stranded RNA; test: as above; details: 20 μM compound, 30° C., lower % = stronger binding
Procedure, shortened: as §1

[8] = tested on: Rhizopus arrhizus (NEQAS12.35321); details: read-out: MIC99 Rhizopus arrhizus
[9] = tested on: Enterococcus faecalis (ATCC 51299); test: Antibacterial MIC, broth microdilution (CLSI); assay type: cell-based; details: for MIC80: Enterococcus faecalis, ATCC51299, read-out: MIC80 E. faecalis; for E. faecalis Selectivity Indices, Group / E. faecalis Selectivity Index (SI): SI, IC50 (μM)/MIC80 (μM), HEK293 cytotoxicity; for E. faecalis Selectivity Indices, Group: Alkyl Amidines and NH Pyrroles; for E. faecalis Selectivity Index (SI): numeric value
A. flavus (CBS 128.202) = details: Aspergillus flavus, CBS128, read-out: MIC99 A. flavus
Candida auris (H.17.157) = details: for MIC99: Candidozyma auris, read-out: MIC99 Candida auris
[10] = tested on: Staphylococcus aureus (ATCC 43300); test: Antibacterial MIC, broth microdilution (CLSI); assay type: cell-based; details: for S. aureus Selectivity Indices, Group: SI, IC50 (μM)/MIC80 (μM), HEK293 cytotoxicity, Alkyl Amidines and NH Pyrroles; for MIC80: Staphylococcus aureus, ATCC43300, read-out: MIC80 S. aureus
C. neoformans (F10025) = details: Cryptococcus neoformans, read-out: MIC99 C. neoformans
[11] = tested on: Fusarium oxysporum (F7098); details: read-out: MIC99 Fusarium oxysporum
Method: The Minimum Inhibitory Concentration (MIC, at 99% inhibition) of the compounds was determined using the broth microdilution method as recommended by EUCAST (EUCAST Definitive Document E.DEF 9.3.2, Method for the determination of broth dilution minimum inhibitory concentrations of antifungal agents for conidia forming moulds and EUCAST Definitive Document E.DEF 7.3.2 Method for the determination of broth dilution minimum inhibitory concentrations of antifungal agents for yeasts).

[12] = tested on: Scedosporium prolificans (F2746); details: Lomentospora prolificans, read-out: MIC99 Scedosporium prolificans
T. evansi AntTat 3/3 = test: Resazurin-based (Alamar blue) drug sensitivity assay; details: read-out: IC50 T. evansi
T. vaginalis = test: Trichomonas resorufin assay; assay type: cell-based; details: for T. vaginalis Selectivity Indices, Group: Alkyl Amidines and NH Pyrroles; for IC50: Trichomonas vaginalis, read-out: IC50 T. vaginalis
[13] = tested on: human respiratory syncytial virus (RSV A2); test: Viral ToxGlo assay, Hep-2 cells; assay type: cell-based; details: 72 h
[14] = SI, IC50 (μM)/IC50 (μM), HEK293 cytotoxicity, numeric value
[15] = SI, IC50 (μM)/IC50 (μM), HEK293 cytotoxicity

SMILES	MIC80 [1]	inhibition at 20 µM [2]	IC50 [3]	MIC99 [4]	MIC99 [5]	IC50 (T. equiperdum)	inhibition at 20 µM (Influenza (H1N1))	MIC99 (C. albicans (ATCC 90028))	% Normalised Fluorescence with gDNA [6]	% Normalised Fluorescence with polyAU RNA [7]	MIC99 [8]	MIC80 [9]	MIC99 (A. flavus (CBS 128.202))	MIC99 (Candida auris (H.17.157))	S. aureus Selectivity Indices, Group [10]	MIC80 [10]	MIC99 (C. neoformans (F10025))	T. vaginalis Selectivity Indices, Group (T. vaginalis; [15])	IC50 (T. vaginalis)	E. faecalis Selectivity Indices, Group [9]	other results
CN(C)c1ccc(/C=C/c2ccc(C(=O)Nc3c[nH]c(C(=O)Nc4cc(C(=O)NCCC(=N)N)n(C)c4)c3)cn2)cc1 [IIIa5, (E)-N-(5-((5-((3-amino-3-iminopropyl)carbamoyl)-1-methyl-1H-pyrrol-3-yl)carbamoyl)-1H-pyrrol-3-yl)-6-(4-(dimethylamino)styryl)nicotinamide]	> 100 µM	> 50%	< 2000 nM	5 to 25 µg/mL (≈ 8.81 to 44 µM)	5 to 25 µg/mL (≈ 8.81 to 44 µM)	100 to 1000 nM	25 to 50%	< 5 µg/mL	11%	3%	5 to 25 µg/mL (≈ 8.81 to 44 µM)	5 to 25 µM (≈ 2.84 to 14.2 µg/mL)	5 to 25 µg/mL (≈ 8.81 to 44 µM)	5 to 25 µg/mL (≈ 8.81 to 44 µM)	C (Group C: 5 < SI <= 10)	< 5 µM					SARS-CoV-2 Selectivity Indices, Group ([3]; SI, IC50 (μM)/IC50 (μM), HEK293 cytotoxicity, Alkyl Amidines and NH Pyrroles): D (Group D: SI > 25); SARS-CoV-2 Selectivity Index (SI) [3, 14]: 39; C. auris Selectivity Indices, Group (Candida auris (H.17.157); SI, IC50 (μM)/MIC99 (μg/mL), HEK293 cytotoxicity, Alkyl Amidines and NH Pyrroles): D (Group D SI > 3); C. auris Selectivity Index (SI) (Candida auris (H.17.157); SI, IC50 (μM)/MIC99 (μg/mL), HEK293 cytotoxicity, numeric value): 5
C/N=C(/CCNC(=O)c1cc(NC(=O)c2cc(NC(=O)c3ccc(/C=C/c4ccc5nonc5c4)cc3)cn2C)cn1C)NC [Ia6, 4-(4-((E)-2-(benzo[c][1,2,5]oxadiazol-5-yl)vinyl)benzamido)-1-methyl-N-(1-methyl-5-(((Z)-3-(methylamino)-3-(methylimino)propyl)carbamoyl)-1H-pyrrol-3-yl)-1H-pyrrole-2-carboxamide]	> 100 µM			< 5 µg/mL	< 5 µg/mL			< 5 µg/mL	3%	6%	5 to 25 µg/mL (≈ 8.23 to 41.1 µM)	< 5 µM	< 5 µg/mL	> 50 µg/mL		< 5 µM	< 5 µg/mL				MIC99 [11]: < 5 µg/mL; MIC99 [12]: < 5 µg/mL
CC/N=C(\N)CCNC(=O)c1cc(NC(=O)c2cc(NC(=O)c3ccc(/C=C/c4ccc5nonc5c4)cc3)cn2C)cn1C [Ia12, N—((Z)-3-amino-3-(ethylimino)propyl)-4-(4-(4-((E)-2-(benzo[c][1,2,5]oxadiazol-5-yl)vinyl)benzamido)-1-methyl-1H-pyrrole-2-carboxamido)-1-methyl-1H-pyrrole-2-carboxamide]	> 100 µM	10 to 25%	8000 to 32000 nM	> 50 µg/mL	5 to 25 µg/mL (≈ 8.23 to 41.1 µM)	100 to 1000 nM	> 50%		2%	2%		< 5 µM			C (Group C: 5 < SI <= 10)	5 to 25 µM (≈ 3.04 to 15.2 µg/mL)	5 to 25 µg/mL (≈ 8.23 to 41.1 µM)	B (Group B: 8 < SI <= 16)	1000 to 5000 nM	D (D: SI > 10)	IC50 (T. evansi AntTat 3/3): 100 to 1000 nM; E. faecalis Selectivity Index (SI) [9]: 23; inhibition at 20 µM [13]: > 50%
CC(C)/N=C(\N)CCNC(=O)c1cc(NC(=O)c2cc(NC(=O)c3ccc(/C=C/c4ccc5nonc5c4)cc3)cn2C)cn1C [Ia13, N—((Z)-3-amino-3-(isopropylimino)propyl)-4-(4-(4-((E)-2-(benzo[c][1,2,5]oxadiazol-5-yl)vinyl)benzamido)-1-methyl-1H-pyrrole-2-carboxamido)-1-methyl-1H-pyrrole-2-carboxamide]	> 100 µM	25 to 50%	8000 to 32000 nM	> 50 µg/mL	25 to 50 µg/mL (≈ 40.2 to 80.4 µM)		> 50%		2%	3%		< 5 µM			C (Group C: 5 < SI <= 10)	5 to 25 µM (≈ 3.11 to 15.5 µg/mL)	5 to 25 µg/mL (≈ 8.04 to 40.2 µM)	C (Group C: 16 < SI <= 32)	1000 to 5000 nM	D (D: SI > 10)	T. vaginalis Selectivity Index (SI) (T. vaginalis; [14]): 17; E. faecalis Selectivity Index (SI) [9]: 12; inhibition at 20 µM [13]: > 50%
